Assay results reported in patent US9341616B2, “Sweet taste receptor chimeric proteins and use thereof” (AJINOMOTO CO., INC., priority 2014, dated 2016).
Residues, ends and D or L forms follow the SMILES beside them.

Each molecule was assayed against h-mT1R2-EX5/T1R3mosaicA (UniProt Q8TE23+Q925D8, A12W/A31M/A537S/A558R/A564V/A568V/A570T/A588V/A645S/A649T/A658V/A698V/A702T/A782V/A793V/A807V/C582S/C678S/E16H/E530V/E534N/E542M/E548N/E725V/F14L/F29L/F525Y/F541I/F612A/F622V/F665L/F695L/G696N/G701T/H528R/H728R/I36V/I490V/I510L/I518V/I595M/I60P/I617V/I643V/I645L/I692L/I695G/I706V/I740A/I803L/K30R/K504M/K555R/K565R/K626T/K714N/K818R/K827G/L17P/L521P/L560F/L571I/L578I/L610P/L631F/L636F/L639V/L684P/L688V/L702I/L734M/L735F/L800F/L823M/L825Q/M19T/M492I/M616G/M644L/M682V/M690V/M744T/M748V/N52R/N540G/N541S/N547G/N58S/N63T/N675D/N721H/P545F/P561R/P564S/P61V/P638T/P824S/Q32K/Q536L/Q53S/Q546K/Q550E/Q555R/Q56R/Q611L/Q676H/Q757R/Q795R/Q831P/R498S/R632Q/R667S/S22P/S45E/S501P/S547N/S550A/S576L/S595F/S610P/S628F/S635P/S637R/S663R/S670G/S679G/S681F/S703N/S717H/S727G/S784D/S804G/T46A/T50G/T529S/T542A/T549I/T609V/T629S/T642S/T663I/T694M/T705I/T706G/T716I/T813A/V508I/V512P/V557A/V573A/V584A/V585L/V613L/V617M/V673M/V687A/V691A/V694A/V718L/V718M/V723A/V729T/V738A/V741L/V774I/V791M/V805L/V812A/V821L/W599R/W676R/W824R/Y533F/Y615F/Y671F/Y680C/Y769S/Y783H/Y794L). Conditions: Table 4; genes h-mTEX5/T3mA (h-mT1R2-EX5, T1R3mA); HEK293E cells.
Sequence of h-mT1R2-EX5/T1R3mosaicA (Q8TE23 with tags, fused parts or gaps with the stated changes limits assumed): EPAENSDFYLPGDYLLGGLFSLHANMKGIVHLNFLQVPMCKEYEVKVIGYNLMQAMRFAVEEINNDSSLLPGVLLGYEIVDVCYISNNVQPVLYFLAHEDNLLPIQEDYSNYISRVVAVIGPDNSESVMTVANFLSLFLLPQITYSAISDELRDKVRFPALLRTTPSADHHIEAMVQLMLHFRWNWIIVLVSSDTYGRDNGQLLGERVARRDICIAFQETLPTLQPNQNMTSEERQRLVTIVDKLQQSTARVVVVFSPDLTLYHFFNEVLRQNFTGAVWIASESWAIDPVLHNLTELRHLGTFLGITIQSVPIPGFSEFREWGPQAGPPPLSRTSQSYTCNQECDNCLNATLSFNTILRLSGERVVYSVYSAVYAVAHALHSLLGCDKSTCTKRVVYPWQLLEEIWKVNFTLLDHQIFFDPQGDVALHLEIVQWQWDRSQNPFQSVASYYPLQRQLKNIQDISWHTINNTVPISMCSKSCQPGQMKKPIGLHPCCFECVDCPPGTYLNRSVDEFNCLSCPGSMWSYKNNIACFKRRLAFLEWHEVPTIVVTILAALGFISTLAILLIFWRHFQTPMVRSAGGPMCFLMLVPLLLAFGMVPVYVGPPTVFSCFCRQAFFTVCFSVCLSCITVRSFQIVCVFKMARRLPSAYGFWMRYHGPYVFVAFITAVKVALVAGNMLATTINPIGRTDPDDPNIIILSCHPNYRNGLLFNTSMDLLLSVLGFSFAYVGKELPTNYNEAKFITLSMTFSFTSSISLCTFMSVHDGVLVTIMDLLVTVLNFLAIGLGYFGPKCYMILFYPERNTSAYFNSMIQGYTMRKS
Sequence of h-mT1R2-EX5/T1R3mosaicA (Q925D8 with tags, fused parts or gaps with the stated changes limits assumed): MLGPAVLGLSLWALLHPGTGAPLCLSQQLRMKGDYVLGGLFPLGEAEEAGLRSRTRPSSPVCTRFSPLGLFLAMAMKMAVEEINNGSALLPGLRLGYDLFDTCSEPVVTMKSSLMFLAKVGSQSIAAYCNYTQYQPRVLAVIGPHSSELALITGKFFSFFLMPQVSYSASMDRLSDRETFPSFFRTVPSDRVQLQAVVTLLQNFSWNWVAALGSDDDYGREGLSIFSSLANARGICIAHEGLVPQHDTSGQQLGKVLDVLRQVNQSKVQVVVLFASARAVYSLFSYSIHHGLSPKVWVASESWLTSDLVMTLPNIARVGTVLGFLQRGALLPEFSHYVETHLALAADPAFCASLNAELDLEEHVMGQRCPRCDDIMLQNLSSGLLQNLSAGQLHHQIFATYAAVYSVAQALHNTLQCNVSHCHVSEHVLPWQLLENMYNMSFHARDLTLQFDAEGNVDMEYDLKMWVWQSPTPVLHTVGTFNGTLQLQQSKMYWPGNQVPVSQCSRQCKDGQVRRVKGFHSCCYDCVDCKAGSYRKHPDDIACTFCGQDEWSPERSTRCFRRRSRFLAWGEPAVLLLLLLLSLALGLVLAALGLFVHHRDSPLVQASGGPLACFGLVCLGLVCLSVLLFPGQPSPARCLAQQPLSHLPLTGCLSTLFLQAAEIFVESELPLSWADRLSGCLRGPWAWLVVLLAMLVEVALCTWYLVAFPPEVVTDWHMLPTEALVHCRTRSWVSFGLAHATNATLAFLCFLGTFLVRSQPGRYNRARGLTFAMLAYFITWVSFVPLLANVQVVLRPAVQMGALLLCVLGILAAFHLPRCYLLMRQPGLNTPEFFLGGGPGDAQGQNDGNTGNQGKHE

COC(=O)[C@H](Cc1ccccc1)NC(=O)[C@H](CC(=O)O)NCCC(C)(C)C [Neotame, neotame] was tested. Which S/N did it give?
The S/N was 7.5.

For COC(=O)[C@H](Cc1ccccc1)NC(=O)[C@H](CC(=O)O)NCCCc1ccc(OC)c(O)c1 [Advantame, advantame], which S/N is on record?
Its S/N is 9.4.

Which S/N does the source give for OC[C@H]1O[C@@](CO)(O[C@H]2O[C@H](CO)[C@@H](O)[C@H](O)[C@H]2O)[C@@H](O)[C@@H]1O [Sucrose, sucrose] here?
The S/N was 3.5.

For COC(=O)[C@H](Cc1ccccc1)NC(=O)[C@@H](N)CC(=O)O [Aspartame, aspartame] (HELM PEPTIDE1{D.F.[CO[*:1]]}$$$$V2.0), which S/N is on record?
The S/N was 7.6.

How did the S/N turn out when O=C1NS(=O)(=O)c2ccccc21.[Na] [Saccharin Na, sodium saccharin] was run?
Its S/N is 4.6.

With C[C@H](NC(=Nc1ccc(C#N)cc1)NCC(=O)O)c1ccccc1 [SC-45647, [3-[(S)-1-phenylethyl]-2-(4-cyanophenyl)guanidino]acetic acid] as the molecule, how does the S/N read?
Its S/N is 7.3.

Which S/N does the source give for OC[C@H]1O[C@H](O[C@]2(CCl)O[C@H](CCl)[C@@H](O)[C@@H]2O)[C@H](O)[C@@H](O)[C@H]1Cl [Sucralose, sucralose] here?
The S/N was 7.4.

Which S/N does the source give for CC1=CC(=O)NS(=O)(=O)O1 [Acesulfame K, acesulfame potassium] here?
Its S/N is 5.1.
